Measured values published in US6916616B2, “Stabilized aqueous nucleoside triphosphate solutions” (priority 1996, dated 2005).

Columns and labels:
Format in all cases: physicochemical
[1] = Stress experiments of d-NTP solutions at 35° C., triphosphate content by HPLC; settings: pH 8.3 compared to pH 7.5, 35° C., three independent stress experiments, samples between 7 and 89 days
Experimental: d-NTP solutions at a concentration of 100 to 110 mmol/l were adjusted to pH values between 7.5 and 8.3 with sodium hydroxide solution. The sample was stored at 35° C., 22° C., 4° C. and −20° C. Aliquots were removed at various time points and the purity was examined by means of HPLC. The relative amount of the tri, di and monophosphate as well as of the free base was determined by integrating the areas. The stabilization was estimated by the following formula from three independent stress experiments of d-NTPs at pH 8.3 and 7.5 at 35° C. in which samples were taken at intervals between 7 and 89 days. Δ content (pH 8.3)−Δ content (7.5)×100 Δ content (pH 7.5) in which Δ content (pH . . . )=content (t=0)−content (t)

[2] = Stabilization at room temperature (real-time model, 204 days, 20° C.); settings: for difference in decrease of triphosphate content pH 8.3 vs pH 7.5: 204 days
Experimental: d-NTP solutions at a concentration of 100 to 110 mmol/l were adjusted to pH values between 7.5 and 8.3 with sodium hydroxide solution. The sample was stored at 35° C., 22° C., 4° C. and −20° C. Aliquots were removed at various time points and the purity was examined by means of HPLC. The relative amount of the tri, di and monophosphate as well as of the free base was determined by integrating the areas.
After 204 days (20° C.) the difference in the pH stabilization became apparent (in the real-time model). […] In the case of d-GTP solutions the triphosphate content decreased for example by ca. 6.8% at pH 7.5 and by ca. 5.2% at pH 8.3 (difference 23%).

[3] = Determination of the pH optimum of the d-NTPs (35 days at 35° C., HPLC); settings: 100 to 110 mmol/l
Experimental: d-NTP solutions (dCTP, dTTP, dUTP) at a concentration of 100 to 110 mmol/l were adjusted to pH values between 7.5 and 12 (d-ATP, dGTP not pH 7.9 and 8.3) with sodium hydroxide solution. The sample was stressed for 35 days at 35° C. and subsequently the purity was examined by means of HPLC. The relative amount of the tri, di and monophosphate as well as of the free base was determined by integrating the areas.

Structure (SMILES) | stabilization, average value [1] | stabilization, maximum value [1] | stabilization, minimum value [1] | difference in decrease of triphosphate content pH 8.3 vs pH 7.5 [2] | decrease of triphosphate content ([2]; pH 7.5, 204 days) | decrease of triphosphate content ([2]; pH 8.3, 204 days) | degradation up to pH 12 [3]
Nc1ncnc2c1ncn2[C@H]1C[C@H](O)[C@@H](COP(=O)(O)OP(=O)(O)OP(=O)(O)O)O1 [d-ATP] | 19% | 33% | 9% | 17% | ca. 7.6% | ca. 6.3% | 
Nc1ccn([C@H]2C[C@H](O)[C@@H](COP(=O)(O)OP(=O)(O)OP(=O)(O)O)O2)c(=O)n1 [d-CTP] | 20% | 37% | 10% |  |  |  | deaminated at pH 12 to form d-UTP
Nc1nc2c(ncn2[C@H]2C[C@H](O)[C@@H](COP(=O)(O)OP(=O)(O)OP(=O)(O)O)O2)c(=O)[nH]1 [d-GTP] | 21% | 30% | 12% | 23% | ca. 6.8% | ca. 5.2% | 
Cc1cn([C@H]2C[C@H](O)[C@@H](COP(=O)(O)OP(=O)(O)OP(=O)(O)O)O2)c(=O)[nH]c1=O [d-TTP] | 5% | 17% | 26% |  |  |  | 
O=c1ccn([C@H]2C[C@H](O)[C@@H](COP(=O)(O)OP(=O)(O)OP(=O)(O)O)O2)c(=O)[nH]1 [d-UTP] | 5% | 15% | 25% |  |  |  | 
